ChEMBL document CHEMBL3991601, “The target landscape of clinical kinase drugs” (Science, 2017)
Calls of active or inactive are those of the source. For most assays here, no stated cut-off is given here; in the data, actives have a measured Kd and inactives only a lower limit.

How the values were obtained:
[1] = biological target: Cyclin-dependent kinase 12 (Homo sapiens, UniProt Q9NYV4)
[2] = biological target: T1, Glycogen phosphorylase, brain form (Homo sapiens, UniProt P11216)
T1 sequence (P11216 whole entry): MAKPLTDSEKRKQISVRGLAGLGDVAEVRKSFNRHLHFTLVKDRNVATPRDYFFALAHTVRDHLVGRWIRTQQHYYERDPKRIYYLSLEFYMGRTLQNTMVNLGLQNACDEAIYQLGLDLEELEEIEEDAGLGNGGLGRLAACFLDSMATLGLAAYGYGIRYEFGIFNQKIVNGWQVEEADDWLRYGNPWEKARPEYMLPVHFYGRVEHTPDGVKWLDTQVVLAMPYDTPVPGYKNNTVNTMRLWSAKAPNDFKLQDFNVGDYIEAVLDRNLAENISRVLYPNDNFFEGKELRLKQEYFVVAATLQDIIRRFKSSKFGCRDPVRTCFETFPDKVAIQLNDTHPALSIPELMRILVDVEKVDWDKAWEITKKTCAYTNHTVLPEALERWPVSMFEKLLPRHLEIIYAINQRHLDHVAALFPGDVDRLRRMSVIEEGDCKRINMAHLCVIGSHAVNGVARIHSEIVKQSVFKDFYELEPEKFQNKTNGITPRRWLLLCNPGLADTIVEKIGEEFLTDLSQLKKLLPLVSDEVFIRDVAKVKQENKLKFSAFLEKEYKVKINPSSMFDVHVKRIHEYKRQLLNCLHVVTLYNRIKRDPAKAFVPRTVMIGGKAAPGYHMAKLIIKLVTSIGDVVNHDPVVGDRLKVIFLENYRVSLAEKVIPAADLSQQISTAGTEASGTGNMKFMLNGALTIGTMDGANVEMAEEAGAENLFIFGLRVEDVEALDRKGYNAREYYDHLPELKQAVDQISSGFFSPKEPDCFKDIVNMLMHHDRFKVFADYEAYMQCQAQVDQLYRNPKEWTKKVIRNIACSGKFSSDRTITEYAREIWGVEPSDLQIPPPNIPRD

[3] = biological target: Rho-associated protein kinase 2 (Homo sapiens, UniProt O75116)
[4] = biological target: Epithelial discoidin domain-containing receptor 1 (Homo sapiens, UniProt Q08345)
[5] = biological target: Mitogen-activated protein kinase kinase kinase 20 (Homo sapiens, UniProt Q9NYL2)
[6] = biological target: T2, Thyroid hormone receptor-associated protein 3 (Homo sapiens, UniProt Q9Y2W1)
T2 sequence (Q9Y2W1 whole entry): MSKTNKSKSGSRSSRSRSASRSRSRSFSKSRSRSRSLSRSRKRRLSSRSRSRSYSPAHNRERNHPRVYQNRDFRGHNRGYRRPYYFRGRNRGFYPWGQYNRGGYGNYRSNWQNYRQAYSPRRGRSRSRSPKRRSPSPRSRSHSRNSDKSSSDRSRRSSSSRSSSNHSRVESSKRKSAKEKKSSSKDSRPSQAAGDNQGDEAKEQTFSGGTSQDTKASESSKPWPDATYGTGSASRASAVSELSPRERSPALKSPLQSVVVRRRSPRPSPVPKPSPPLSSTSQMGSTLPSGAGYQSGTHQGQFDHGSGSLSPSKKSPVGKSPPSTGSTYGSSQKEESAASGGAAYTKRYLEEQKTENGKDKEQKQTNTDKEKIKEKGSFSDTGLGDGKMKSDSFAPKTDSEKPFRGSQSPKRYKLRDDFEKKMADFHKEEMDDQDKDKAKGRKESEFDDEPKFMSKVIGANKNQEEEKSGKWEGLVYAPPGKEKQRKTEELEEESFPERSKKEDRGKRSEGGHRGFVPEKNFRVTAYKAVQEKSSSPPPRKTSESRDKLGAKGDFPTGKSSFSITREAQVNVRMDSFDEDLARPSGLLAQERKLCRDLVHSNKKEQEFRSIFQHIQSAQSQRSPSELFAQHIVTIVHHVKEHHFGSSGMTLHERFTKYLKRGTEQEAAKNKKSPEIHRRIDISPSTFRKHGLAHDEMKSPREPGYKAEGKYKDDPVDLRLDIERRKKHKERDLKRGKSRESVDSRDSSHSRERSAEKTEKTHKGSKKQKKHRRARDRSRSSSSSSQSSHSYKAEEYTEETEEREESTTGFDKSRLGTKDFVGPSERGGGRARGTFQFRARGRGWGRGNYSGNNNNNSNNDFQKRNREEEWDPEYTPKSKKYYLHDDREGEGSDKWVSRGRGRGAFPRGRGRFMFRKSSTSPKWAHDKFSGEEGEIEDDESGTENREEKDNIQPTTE

[7] = biological target: Serine/threonine-protein kinase PAK 2 (Homo sapiens, UniProt Q13177)
[8] = biological target: T3, Dual specificity mitogen-activated protein kinase kinase 3 (Homo sapiens, UniProt P46734)
T3 sequence (P46734 whole entry): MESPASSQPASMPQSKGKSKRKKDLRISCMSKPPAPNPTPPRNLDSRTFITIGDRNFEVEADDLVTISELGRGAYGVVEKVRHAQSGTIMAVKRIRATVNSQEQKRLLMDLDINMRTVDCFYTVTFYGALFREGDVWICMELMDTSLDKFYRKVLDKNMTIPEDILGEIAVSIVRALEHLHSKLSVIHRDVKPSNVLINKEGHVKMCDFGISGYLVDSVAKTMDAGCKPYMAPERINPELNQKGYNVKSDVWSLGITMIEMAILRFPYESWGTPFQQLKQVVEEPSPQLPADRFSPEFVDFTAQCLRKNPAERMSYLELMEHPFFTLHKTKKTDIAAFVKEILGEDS

[9] = biological target: Mitogen-activated protein kinase kinase kinase 4 (Homo sapiens, UniProt Q9Y6R4)
[10] = biological target: cAMP-dependent protein kinase catalytic subunit alpha (Homo sapiens, UniProt P17612)
[11] = biological target: Calcium/calmodulin-dependent protein kinase type II subunit delta (Homo sapiens, UniProt Q13557)
[12] = biological target: Mitogen-activated protein kinase 9 (Homo sapiens, UniProt P45984)
[13] = biological target: Cyclin-dependent kinase 4 (Homo sapiens, UniProt P11802)
DNA topoisomerase 2-beta = DNA topoisomerase 2-beta (Homo sapiens, UniProt Q02880)
Ephrin type-A receptor 4 = Ephrin type-A receptor 4 (Homo sapiens, UniProt P54764)

Chain of Cyclin-dependent kinase 12 (Q9NYV4 whole entry): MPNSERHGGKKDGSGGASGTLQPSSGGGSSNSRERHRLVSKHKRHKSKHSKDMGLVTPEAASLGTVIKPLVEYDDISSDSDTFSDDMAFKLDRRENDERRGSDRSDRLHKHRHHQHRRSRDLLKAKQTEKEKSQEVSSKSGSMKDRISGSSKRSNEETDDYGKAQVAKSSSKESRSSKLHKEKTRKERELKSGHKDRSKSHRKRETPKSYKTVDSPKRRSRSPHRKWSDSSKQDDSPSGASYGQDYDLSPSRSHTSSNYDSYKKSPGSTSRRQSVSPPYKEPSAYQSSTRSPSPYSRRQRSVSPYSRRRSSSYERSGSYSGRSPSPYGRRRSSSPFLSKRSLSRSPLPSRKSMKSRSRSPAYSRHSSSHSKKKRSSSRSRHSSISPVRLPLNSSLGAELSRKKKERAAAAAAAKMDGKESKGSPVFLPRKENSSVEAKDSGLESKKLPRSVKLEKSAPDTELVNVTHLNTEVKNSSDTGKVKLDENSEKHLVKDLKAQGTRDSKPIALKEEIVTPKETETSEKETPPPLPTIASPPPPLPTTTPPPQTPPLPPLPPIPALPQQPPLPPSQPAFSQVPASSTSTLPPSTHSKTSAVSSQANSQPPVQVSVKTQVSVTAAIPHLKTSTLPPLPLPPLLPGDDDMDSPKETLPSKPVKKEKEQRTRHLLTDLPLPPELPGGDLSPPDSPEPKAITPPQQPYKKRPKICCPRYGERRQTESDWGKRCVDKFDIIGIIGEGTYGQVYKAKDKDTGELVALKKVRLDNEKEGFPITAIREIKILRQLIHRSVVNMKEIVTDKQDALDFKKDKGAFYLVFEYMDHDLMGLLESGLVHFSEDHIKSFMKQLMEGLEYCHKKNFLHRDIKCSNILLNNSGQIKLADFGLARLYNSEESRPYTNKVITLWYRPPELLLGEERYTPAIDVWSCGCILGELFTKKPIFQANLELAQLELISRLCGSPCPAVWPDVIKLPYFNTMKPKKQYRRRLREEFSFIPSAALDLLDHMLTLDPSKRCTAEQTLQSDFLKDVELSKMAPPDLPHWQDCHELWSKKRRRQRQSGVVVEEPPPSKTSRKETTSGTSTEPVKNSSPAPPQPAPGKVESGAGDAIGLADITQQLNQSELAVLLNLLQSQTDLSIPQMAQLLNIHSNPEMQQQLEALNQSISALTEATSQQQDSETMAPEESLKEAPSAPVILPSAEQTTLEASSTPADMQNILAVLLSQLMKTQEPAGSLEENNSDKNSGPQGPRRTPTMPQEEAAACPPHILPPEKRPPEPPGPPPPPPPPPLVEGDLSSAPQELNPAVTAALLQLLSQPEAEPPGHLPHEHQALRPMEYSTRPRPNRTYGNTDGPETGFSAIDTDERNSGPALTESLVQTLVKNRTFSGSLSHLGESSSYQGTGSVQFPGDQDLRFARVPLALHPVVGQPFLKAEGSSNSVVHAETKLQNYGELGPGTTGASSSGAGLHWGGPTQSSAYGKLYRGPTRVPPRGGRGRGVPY
Chain of Mitogen-activated protein kinase kinase kinase 20 (Q9NYL2 whole entry): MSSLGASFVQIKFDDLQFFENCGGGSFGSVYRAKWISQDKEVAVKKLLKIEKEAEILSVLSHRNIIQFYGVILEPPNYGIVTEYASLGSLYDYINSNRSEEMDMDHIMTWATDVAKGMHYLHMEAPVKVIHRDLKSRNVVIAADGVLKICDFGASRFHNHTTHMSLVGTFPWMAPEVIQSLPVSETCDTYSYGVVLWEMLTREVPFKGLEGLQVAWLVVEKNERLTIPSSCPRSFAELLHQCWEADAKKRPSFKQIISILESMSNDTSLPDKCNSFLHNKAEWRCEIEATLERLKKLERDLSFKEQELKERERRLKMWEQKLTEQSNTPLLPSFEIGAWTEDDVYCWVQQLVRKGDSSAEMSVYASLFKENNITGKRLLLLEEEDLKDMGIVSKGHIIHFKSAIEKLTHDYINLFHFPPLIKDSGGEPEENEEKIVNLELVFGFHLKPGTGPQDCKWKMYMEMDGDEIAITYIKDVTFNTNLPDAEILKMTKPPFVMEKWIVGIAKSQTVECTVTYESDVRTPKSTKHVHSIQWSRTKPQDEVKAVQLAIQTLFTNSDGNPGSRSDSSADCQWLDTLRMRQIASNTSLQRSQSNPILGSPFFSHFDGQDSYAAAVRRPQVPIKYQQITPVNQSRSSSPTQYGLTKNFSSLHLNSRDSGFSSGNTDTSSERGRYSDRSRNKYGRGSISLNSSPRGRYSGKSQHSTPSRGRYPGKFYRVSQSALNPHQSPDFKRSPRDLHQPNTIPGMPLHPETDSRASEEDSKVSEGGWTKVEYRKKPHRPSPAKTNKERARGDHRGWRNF
Chain of Mitogen-activated protein kinase 9 (P45984 whole entry): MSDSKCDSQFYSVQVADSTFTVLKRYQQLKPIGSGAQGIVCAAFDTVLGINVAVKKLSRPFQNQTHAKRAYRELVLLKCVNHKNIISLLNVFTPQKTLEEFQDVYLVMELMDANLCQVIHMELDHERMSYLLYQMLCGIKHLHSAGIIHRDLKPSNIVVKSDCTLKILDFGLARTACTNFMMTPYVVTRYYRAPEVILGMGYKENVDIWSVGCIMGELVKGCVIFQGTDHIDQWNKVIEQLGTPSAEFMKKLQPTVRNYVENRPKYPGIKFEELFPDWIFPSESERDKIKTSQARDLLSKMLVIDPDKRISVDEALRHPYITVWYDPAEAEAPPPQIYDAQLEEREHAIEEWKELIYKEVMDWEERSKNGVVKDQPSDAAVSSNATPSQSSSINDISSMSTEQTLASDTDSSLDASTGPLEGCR
Chain of Calcium/calmodulin-dependent protein kinase type II subunit delta (Q13557 whole entry): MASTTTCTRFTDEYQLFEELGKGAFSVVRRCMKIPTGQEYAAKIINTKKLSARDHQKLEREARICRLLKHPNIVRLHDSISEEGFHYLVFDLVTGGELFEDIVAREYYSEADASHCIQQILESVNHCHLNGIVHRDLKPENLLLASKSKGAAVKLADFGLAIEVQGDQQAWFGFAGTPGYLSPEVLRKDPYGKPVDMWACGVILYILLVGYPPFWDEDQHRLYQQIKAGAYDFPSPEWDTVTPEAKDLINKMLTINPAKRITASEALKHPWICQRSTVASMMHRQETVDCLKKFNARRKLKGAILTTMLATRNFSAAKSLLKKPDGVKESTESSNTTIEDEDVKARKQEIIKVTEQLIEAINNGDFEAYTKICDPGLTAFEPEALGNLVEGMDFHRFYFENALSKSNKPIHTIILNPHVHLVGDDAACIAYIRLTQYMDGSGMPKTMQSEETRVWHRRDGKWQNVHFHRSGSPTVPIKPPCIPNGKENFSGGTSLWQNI
Chain of Mitogen-activated protein kinase kinase kinase 4 (Q9Y6R4 whole entry): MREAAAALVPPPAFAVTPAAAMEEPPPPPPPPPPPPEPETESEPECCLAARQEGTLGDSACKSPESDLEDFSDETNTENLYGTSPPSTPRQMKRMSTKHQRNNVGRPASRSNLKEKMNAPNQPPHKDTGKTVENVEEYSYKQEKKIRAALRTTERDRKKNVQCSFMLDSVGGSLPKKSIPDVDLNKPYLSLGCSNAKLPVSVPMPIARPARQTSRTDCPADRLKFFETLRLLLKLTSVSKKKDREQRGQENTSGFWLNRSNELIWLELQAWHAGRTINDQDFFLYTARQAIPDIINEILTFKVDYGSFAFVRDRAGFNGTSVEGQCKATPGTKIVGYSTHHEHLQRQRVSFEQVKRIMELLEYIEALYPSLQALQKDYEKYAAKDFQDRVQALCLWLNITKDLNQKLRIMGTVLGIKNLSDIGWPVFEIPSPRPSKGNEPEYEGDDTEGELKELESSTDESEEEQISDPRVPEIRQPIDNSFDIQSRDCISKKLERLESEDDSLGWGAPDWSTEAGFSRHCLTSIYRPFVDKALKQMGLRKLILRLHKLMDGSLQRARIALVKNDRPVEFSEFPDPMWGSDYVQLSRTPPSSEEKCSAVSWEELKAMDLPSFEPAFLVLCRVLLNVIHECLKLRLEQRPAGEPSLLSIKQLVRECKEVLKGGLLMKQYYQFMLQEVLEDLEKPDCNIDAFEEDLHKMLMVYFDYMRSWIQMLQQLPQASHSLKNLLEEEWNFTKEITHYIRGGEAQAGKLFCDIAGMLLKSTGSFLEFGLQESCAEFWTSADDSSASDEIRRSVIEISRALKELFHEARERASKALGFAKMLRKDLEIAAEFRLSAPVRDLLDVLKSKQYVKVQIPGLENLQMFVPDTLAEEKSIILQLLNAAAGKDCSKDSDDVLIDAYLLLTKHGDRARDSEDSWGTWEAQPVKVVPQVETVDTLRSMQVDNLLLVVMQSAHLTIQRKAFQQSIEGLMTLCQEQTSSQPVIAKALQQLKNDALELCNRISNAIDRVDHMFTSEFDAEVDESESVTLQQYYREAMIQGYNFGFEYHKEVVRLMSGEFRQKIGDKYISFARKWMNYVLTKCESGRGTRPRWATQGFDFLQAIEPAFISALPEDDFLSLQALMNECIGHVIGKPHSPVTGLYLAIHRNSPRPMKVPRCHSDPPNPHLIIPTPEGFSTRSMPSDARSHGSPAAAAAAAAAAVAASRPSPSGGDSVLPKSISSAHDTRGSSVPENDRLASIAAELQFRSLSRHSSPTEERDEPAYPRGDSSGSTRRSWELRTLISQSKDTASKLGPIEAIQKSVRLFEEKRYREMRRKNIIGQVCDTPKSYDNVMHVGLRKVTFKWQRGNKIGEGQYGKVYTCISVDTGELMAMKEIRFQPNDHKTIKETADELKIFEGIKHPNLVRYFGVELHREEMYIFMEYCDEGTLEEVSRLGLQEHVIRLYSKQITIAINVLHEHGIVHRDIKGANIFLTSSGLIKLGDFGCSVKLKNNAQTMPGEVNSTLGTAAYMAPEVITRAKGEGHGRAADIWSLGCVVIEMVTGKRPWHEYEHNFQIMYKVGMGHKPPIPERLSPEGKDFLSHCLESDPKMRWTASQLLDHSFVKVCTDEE

Kd [1] | Kd [2] | Kd [3] | Kd [4] | Kd [5] | Kd [6] | Kd [7] | Kd [8] | Kd [9] | Kd [10] | Kd [11] | Kd [12] | Kd [13] | Kd (DNA topoisomerase 2-beta) | Kd (Ephrin type-A receptor 4) | Structure (SMILES)
> 30 µM (inactive) | > 30 µM (inactive) | > 30 µM (inactive) | 0.469 µM (active) | > 30 µM (inactive) | > 30 µM (inactive) | > 30 µM (inactive) | > 30 µM (inactive) | > 30 µM (inactive) | > 30 µM (inactive) | > 30 µM (inactive) | > 30 µM (inactive) | > 30 µM (inactive) | > 30 µM (inactive) | > 30 µM (inactive) | CCNC(=O)C#Cc1ccc2c(c1)NC(=O)/C2=C(\Nc1ccc(CN(C)C)cc1)c1ccccc1
> 30 µM (inactive) | > 30 µM (inactive) | > 30 µM (inactive) | 0.881 µM (active) | > 30 µM (inactive) | > 30 µM (inactive) | > 30 µM (inactive) | > 30 µM (inactive) | > 30 µM (inactive) | > 30 µM (inactive) | > 30 µM (inactive) | > 30 µM (inactive) | > 30 µM (inactive) | > 30 µM (inactive) | > 30 µM (inactive) | Cc1nc2cc(-c3nn(C(C)C)c4ncnc(N)c34)ccc2o1
2.98 µM | > 30 µM (inactive) | > 30 µM (inactive) | 0.11 µM (active) | > 30 µM (inactive) | 2.75 µM | > 30 µM (inactive) | > 30 µM (inactive) | > 30 µM (inactive) | > 30 µM (inactive) | > 30 µM (inactive) | > 30 µM (inactive) | > 30 µM (inactive) | 2.6 µM | > 30 µM (inactive) | Cc1csc(-c2nnc(Nc3ccc(Oc4ncccc4-c4ccnc(N)n4)cc3)c3ccccc23)c1 [AMG-900]
> 30 µM (inactive) | > 30 µM (inactive) | > 30 µM (inactive) | > 30 µM (inactive) | > 30 µM (inactive) | > 30 µM (inactive) | > 30 µM (inactive) | > 30 µM (inactive) | > 30 µM (inactive) | > 30 µM (inactive) | > 30 µM (inactive) | > 30 µM (inactive) | > 30 µM (inactive) | > 30 µM (inactive) | > 30 µM (inactive) | CCn1c(C(=O)N(C2CC2)C2CC2)cc2c3c(ncn3C)c(Nc3cc(C)n(C)n3)nc21 [BMS-911543]
> 30 µM (inactive) | – | > 30 µM (inactive) | > 30 µM (inactive) | > 30 µM (inactive) | > 30 µM (inactive) | > 30 µM (inactive) | > 30 µM (inactive) | > 30 µM (inactive) | > 30 µM (inactive) | > 30 µM (inactive) | > 30 µM (inactive) | > 30 µM (inactive) | > 30 µM (inactive) | > 30 µM (inactive) | CO[C@H]1C[C@@H]2CC[C@@H](C)[C@@](O)(O2)C(=O)C(=O)N2CCCC[C@H]2C(=O)O[C@H]([C@H](C)C[C@@H]2CC[C@@H](OC(=O)C(C)(CO)CO)[C@H](OC)C2)CC(=O)[C@H](C)/C=C(\C)[C@@H](O)[C@@H](OC)C(=O)[C@H](C)C[C@H](C)/C=C/C=C/C=C/1C [TEMSIROLIMUS]

Continued, compound first:

Structure (SMILES) | Kd [1] | Kd [2] | Kd [3] | Kd [4] | Kd [5] | Kd [6] | Kd [7] | Kd [8] | Kd [9] | Kd [10] | Kd [11] | Kd [12] | Kd [13] | Kd (DNA topoisomerase 2-beta) | Kd (Ephrin type-A receptor 4)
COCc1c(-c2ccc(NC(=O)Nc3cc(C(F)(F)F)ccc3F)c(F)c2)c2c(N)ncnn2c1CN1CCOCC1 | > 30 µM (inactive) | > 30 µM (inactive) | > 30 µM (inactive) | 0.314 µM (active) | > 30 µM (inactive) | > 30 µM (inactive) | > 30 µM (inactive) | > 30 µM (inactive) | > 30 µM (inactive) | > 30 µM (inactive) | > 30 µM (inactive) | 1.51 µM (active) | > 30 µM (inactive) | > 30 µM (inactive) | > 30 µM (inactive)
Cc1nc(NC(=O)N2CCC[C@H]2C(N)=O)sc1-c1ccnc(C(C)(C)C(F)(F)F)c1 [ALPELISIB] | > 30 µM (inactive) | > 30 µM (inactive) | > 30 µM (inactive) | > 30 µM (inactive) | > 30 µM (inactive) | > 30 µM (inactive) | > 30 µM (inactive) | > 30 µM (inactive) | > 30 µM (inactive) | > 30 µM (inactive) | > 30 µM (inactive) | > 30 µM (inactive) | > 30 µM (inactive) | > 30 µM (inactive) | > 30 µM (inactive)
Cc1cc(C(=O)NOCCO)c(Nc2ccc(I)cc2F)n(C)c1=O [AZD-8330] | > 30 µM (inactive) | > 30 µM (inactive) | > 30 µM (inactive) | > 30 µM (inactive) | > 30 µM (inactive) | > 30 µM (inactive) | > 30 µM (inactive) | > 30 µM (inactive) | > 30 µM (inactive) | > 30 µM (inactive) | > 30 µM (inactive) | > 30 µM (inactive) | > 30 µM (inactive) | > 30 µM (inactive) | > 30 µM (inactive)
Cn1cnc2c(F)c(Nc3ccc(Br)cc3F)c(C(=O)NOCCO)cc21 [BINIMETINIB] | > 30 µM (inactive) | > 30 µM (inactive) | > 30 µM (inactive) | > 30 µM (inactive) | > 30 µM (inactive) | > 30 µM (inactive) | > 30 µM (inactive) | > 30 µM (inactive) | > 30 µM (inactive) | > 30 µM (inactive) | > 30 µM (inactive) | > 30 µM (inactive) | > 30 µM (inactive) | > 30 µM (inactive) | > 30 µM (inactive)
CC(C)c1cc(CNc2nc(Nc3cc(C4CC4)[nH]n3)cc(N3CCN(C)CC3)n2)on1 [XL-228] | > 30 µM (inactive) | > 30 µM (inactive) | > 30 µM (inactive) | – | > 30 µM (inactive) | > 30 µM (inactive) | > 30 µM (inactive) | > 30 µM (inactive) | > 30 µM (inactive) | > 30 µM (inactive) | > 30 µM (inactive) | > 30 µM (inactive) | > 30 µM (inactive) | > 30 µM (inactive) | 0.167 µM (active)
